From ChEMBL document CHEMBL1154064, “Synthesis and DNA cleavage activity of 2-hydrazinyl-1,4,5,6-tetrahydropyrimidine containing hydroxy group” (2009)
The source made the active and inactive calls. The calls are words filed in the database; no cut-off is given here.

Experiments:
Nucleic Acid [1] = test: Binding affinity to Escherichia coli pUC19 DNA assessed as form 1 DNA level at 0.130 mM after 8.08 hrs by agarose gel electrophoresis; format: nucleic-acid assay
Nucleic Acid [2] = test: Binding affinity to Escherichia coli pUC19 DNA assessed as form 1 DNA level at 0.130 mM after 11.30 hrs by agarose gel electrophoresis; format: nucleic-acid assay
Nucleic Acid [3] = test: Binding affinity to Escherichia coli pUC19 DNA assessed as form 2 DNA level at 0.175 mM by agarose gel electrophoresis; format: nucleic-acid assay
Nucleic Acid [4] = test: Binding affinity to Escherichia coli pUC19 DNA assessed as form 2 DNA level at 0.130 mM after 23.52 hrs by agarose gel electrophoresis; format: nucleic-acid assay
Nucleic Acid [5] = test: Binding affinity to Escherichia coli pUC19 DNA assessed as form 1 DNA level at 0.175 mM by agarose gel electrophoresis; format: nucleic-acid assay
Nucleic Acid [6] = test: Binding affinity to Escherichia coli pUC19 DNA assessed as form 2 DNA level at 0.175 mM after 13.07 hrs by agarose gel electrophoresis; format: nucleic-acid assay
Nucleic Acid [7] = test: Binding affinity to Escherichia coli pUC19 DNA assessed as form 2 DNA level at 0.175 mM after 9.07 hrs by agarose gel electrophoresis; format: nucleic-acid assay
Nucleic Acid [8] = test: Binding affinity to Escherichia coli pUC19 DNA assessed as form 2 DNA level at 0.262 mM by agarose gel electrophoresis; format: nucleic-acid assay
Nucleic Acid [9] = test: Binding affinity to Escherichia coli pUC19 DNA assessed as form 1 DNA level at 0.262 mM after 23.02 hrs by agarose gel electrophoresis; format: nucleic-acid assay
Nucleic Acid [10] = test: Binding affinity to Escherichia coli pUC19 DNA assessed as form 2 DNA level at 0.262 mM after 28.18 hrs by agarose gel electrophoresis; format: nucleic-acid assay
Nucleic Acid [11] = test: Binding affinity to Escherichia coli pUC19 DNA assessed as form 1 DNA level at 0.320 mM by agarose gel electrophoresis; format: nucleic-acid assay
Nucleic Acid [12] = test: Binding affinity to Escherichia coli pUC19 DNA assessed as form 1 DNA level at 0.349 mM after 11.33 hrs by agarose gel electrophoresis; format: nucleic-acid assay
Nucleic Acid [13] = test: Binding affinity to Escherichia coli pUC19 DNA assessed as form 2 DNA level at 0.349 mM after 5.40 hrs by agarose gel electrophoresis; format: nucleic-acid assay
Nucleic Acid [14] = test: Binding affinity to Escherichia coli pUC19 DNA assessed as form 2 DNA level at 0.320 mM after 29.33 hrs by agarose gel electrophoresis; format: nucleic-acid assay
Nucleic Acid [15] = test: Binding affinity to Escherichia coli pUC19 DNA assessed as form 1 DNA level at 0.349 mM by agarose gel electrophoresis; format: nucleic-acid assay
Nucleic Acid [16] = test: Binding affinity to Escherichia coli pUC19 DNA assessed as form 2 DNA level at 0.349 mM by agarose gel electrophoresis; format: nucleic-acid assay
Nucleic Acid [17] = test: Binding affinity to supercoiled Escherichia cloli pUC19 DNA assessed as formation of nicked circular DNA at 1.10 mM at pH 6.0 to 8.5 for 24 hrs by agarose gel electrophoresis; format: nucleic-acid assay; conditions: Escherichia coli
HL-60 = test: Growth inhibition of human HL60 cells at 10 uM after 72 hrs by MTT assay; format: functional; set-up: scale not given: the % may be the effect or the level left
Nucleic Acid [18] = test: Binding affinity to Escherichia coli pUC19 DNA assessed as form 1 DNA level at 0.463 mM after 29.33 hrs by agarose gel electrophoresis; format: nucleic-acid assay
Nucleic Acid [19] = test: Binding affinity to Escherichia coli pUC19 DNA assessed as form 1 DNA level at 0.698 mM after 3.72 hrs by agarose gel electrophoresis; format: nucleic-acid assay
Nucleic Acid [20] = test: Binding affinity to Escherichia coli pUC19 DNA assessed as form 2 DNA level at 0.698 mM after 6.42 hrs by agarose gel electrophoresis; format: nucleic-acid assay
Nucleic Acid [21] = test: Binding affinity to Escherichia coli pUC19 DNA assessed as form 1 DNA level at 0.698 mM after 10.70 hrs by agarose gel electrophoresis; format: nucleic-acid assay
Nucleic Acid [22] = test: Binding affinity to Escherichia coli pUC19 DNA assessed as form 2 DNA level at 0.698 mM after 14.22 hrs by agarose gel electrophoresis; format: nucleic-acid assay
Nucleic Acid [23] = test: Binding affinity to Escherichia coli pUC19 DNA assessed as form 1 DNA level at 0.698 mM after 23.80 hrs by agarose gel electrophoresis; format: nucleic-acid assay
Nucleic Acid [24] = test: Binding affinity to Escherichia coli pUC19 DNA assessed as form 2 DNA level at 0.463 mM after 23.12 hrs by agarose gel electrophoresis; format: nucleic-acid assay

In the case of `Cl.Cl.NNC1=NCC(O)CN1` (stereo not given), the Activity (Nucleic Acid [1]) is reported as 83.8%, the Activity (Nucleic Acid [2]) is reported as 78.2% and the Activity (Nucleic Acid [3]) is reported as 2.93%. It also gave an Activity (Nucleic Acid [4]) of 26%, an Activity (Nucleic Acid [5]) of 97.1% and an Activity (Nucleic Acid [6]) of 9.19%. For the same compound, the Activity (Nucleic Acid [7]) was 6.09%, the Activity (Nucleic Acid [8]) was 2.81% and the Activity (Nucleic Acid [9]) was 90.1%. For the same compound, the Activity (Nucleic Acid [10]) was 15.9%, the Activity (Nucleic Acid [11]) was 98.2% and the Activity (Nucleic Acid [12]) was 90.9%. For the same compound, the Activity (Nucleic Acid [13]) was 3.73%, the Activity (Nucleic Acid [14]) was 65.2% and the Activity (Nucleic Acid [15]) was 97.5%. For the same compound, the Activity (Nucleic Acid [16]) was 2.46%, the Activity (Nucleic Acid [17]) was “Active” and the Activity (HL-60) was 2%. For the same compound, the Activity (Nucleic Acid [18]) was 57.8%, the Activity (Nucleic Acid [19]) was 94.9% and the Activity (Nucleic Acid [20]) was 13.4%. For the same compound, the Activity (Nucleic Acid [21]) was 78.2%, the Activity (Nucleic Acid [22]) was 28.4% and the Activity (Nucleic Acid [23]) was 55%. The Activity (Nucleic Acid [24]) was 38%.
